Test results taken from ChEMBL document CHEMBL1159274, “Spiganthine, the cardioactive principle of Spigelia anthelmia” (J Nat Prod, 1995).

Columns and labels:
[1] = (§1) Induction of delay in contraction development in electrically-stimulated guinea pig heart ventricular papillary muscle at contraction frequency of 1 Hz; assay type: functional, tissue-based; details: Cavia porcellus, Muscle tissue
[2] = species on record: Cavia porcellus; test: as §1; assay type: functional, tissue-based; details: Muscle tissue

EC50 [1] [nM] | Structure (SMILES) | minimal effective concentration ([1]; read-out: MEC) [µM] | Activity [2]
– | CC(C)[C@@]1(O)[C@@H](OC(=O)c2cc[nH]c2)[C@@]2(O)[C@]3(C)C[C@@]4(O)O[C@@]5([C@H](O)[C@@H](C)CC[C@]35O)[C@@]2(O)[C@@]41C [RYANODINE] | 0.0165 | –
60 | CC(C)[C@@]1(O)[C@@H](OC(=O)c2cc[nH]c2)[C@@]2(O)[C@@]3(CO)C[C@]4(O)O[C@@]5([C@H](O)[C@@H](C)CC[C@]35O)[C@@]2(O)[C@]14C [SPIGANTHINE] | – | Dose-dependent effect
